Test results published in US7196110B2, “N-substituted tricyclic 3-aminopyrazoles as inhibitors for the treatment of cell proliferative disorders” (Janssen Phamaceutica N.V., priority 2002, dated 2007).
Read-outs that look alike come from different tables or passages of the source.

Target: T1, PDGF-receptor beta enzyme comprising the tyrosine kinase domain (Homo sapiens, UniProt P09619)
T1 construct: from amino acid 545 to 1106 of GenBank Access NO: AAA36427
Assay: Inhibition of PDGF-receptor kinase activity (cell-free, PLC1 peptide, 33P Flashplate)
Assay type: biochemical
Details: for inhibition at 10 µM / Percent Inhibition @ 10 uM: compound at 10 uM; for inhibition at 10 µM: read-out: Percent Inhibition @ 10 uM
Procedure, shortened: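 Recombinant kinase domain (aa 545–1106) phosphorylated a biotinylated PLC1 peptide with 5 μM ATP plus 33P-γ-ATP, in Tris pH 8, MgCl2, Na3VO4 and 1 mM DTT, for 60 min at 30 °C. Retained 33P was counted after washing. IC50 is the concentration halving activity versus no-inhibitor reactions.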

[1] = PDGF-R kinase activity, read-out: IC50
[2] = read-out: IC50 (μM) on PDGF-R kinase activity

T1 sequence (P09619 545-1106): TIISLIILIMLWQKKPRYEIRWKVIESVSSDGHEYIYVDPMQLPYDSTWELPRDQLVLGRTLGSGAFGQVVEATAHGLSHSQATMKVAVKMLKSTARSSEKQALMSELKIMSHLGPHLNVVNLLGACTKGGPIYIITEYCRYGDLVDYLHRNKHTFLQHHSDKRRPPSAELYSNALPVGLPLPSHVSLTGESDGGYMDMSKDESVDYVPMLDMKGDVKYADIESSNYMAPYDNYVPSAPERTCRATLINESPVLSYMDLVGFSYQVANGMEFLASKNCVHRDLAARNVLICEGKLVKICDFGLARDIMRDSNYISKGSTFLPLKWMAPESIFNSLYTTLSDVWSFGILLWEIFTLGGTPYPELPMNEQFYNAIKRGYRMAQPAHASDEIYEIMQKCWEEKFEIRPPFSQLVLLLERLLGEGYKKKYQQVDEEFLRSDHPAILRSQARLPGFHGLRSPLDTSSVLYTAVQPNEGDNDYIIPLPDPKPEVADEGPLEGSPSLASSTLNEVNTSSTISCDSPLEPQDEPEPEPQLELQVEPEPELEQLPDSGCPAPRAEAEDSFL

| SMILES | inhibition at 10 µM (PDGF-R kinase activity) | IC50 [1] | Percent Inhibition @ 10 uM (PDGF-R kinase activity) | IC50 [2] |
| --- | --- | --- | --- | --- |
| Nc1ccc2c(c1)Cc1c-2n[nH]c1Nc1cccc(F)c1 [Compound 121, N3-(3-Fluoro-phenyl)-2,4-dihydro-indeno[1,2-c]pyrazole-3,6-diamine] | 92% | 0.143 µM | – | – |
| Oc1cc2c(cc1O)-c1n[nH]c(Nc3cccc(F)c3)c1C2 [Compound 362, 3-(3-Fluoro-phenylamino)-2,4-dihydro-indeno[1,2-c]pyrazole-6,7-diol] | 80.5% | 0.784 µM | – | – |
| Fc1cccc(F)c1CNc1[nH]nc2c1Cc1c(OCCCN3CCOCC3)cccc1-2 [Compound 414, (2,6-Difluoro-benzyl)-[5-(3-morpholin-4-yl-propoxy)-2,4-dihydro-indeno[1,2-c]pyrazol-3-yl]-amine] | 80.5% | 0.564 µM | – | – |
| CCC1c2cc(OC)c(OC)cc2-c2[nH]nc(Nc3cccc(Br)c3)c21 (single isomer, unassigned) [Compound 482, (3-Bromo-phenyl)-(4-ethyl-6,7-dimethoxy-1,4-dihydro-indeno[1,2-c]pyrazol-3-yl)-amine] | – | 0.0386 µM | 100% | – |
| OCCCOc1cccc2c1Cc1c-2n[nH]c1NCc1c(F)cccc1F [Compound 443, 3-[3-(2,6-Difluoro-benzylamino)-2,4-dihydro-indeno[1,2-c]pyrazol-5-yloxy]-propan-1-ol] | 89.5% | 0.098 µM | – | – |
| COc1cc2c(cc1OC)-c1c(c(Nc3cccc(F)c3)nn1C(=O)CC(=O)N1CCCC1)C2 [Compound 536, 1-[3-(3-Fluoro-phenylamino)-6,7-dimethoxy-4H-indeno[1,2-c]pyrazol-1-yl]-3-pyrrolidin-1-yl-propane-1,3-dione] | 88% | 0.436 µM | – | – |
| COc1cc2c(cc1OC)-c1c(c(Nc3cccc(F)c3)nn1C(=O)Oc1ccc(F)cc1)C2 [Compound 500, 3-(3-Fluoro-phenylamino)-6,7-dimethoxy-4H-indeno[1,2-c]pyrazole-1-carboxylic acid 4-fluoro-phenyl ester] | 80.5% | 0.492 µM | – | – |
| CCOc1cccc(Nc2[nH]nc3c2Cc2c(OCCCN4CCOCC4)cccc2-3)c1 [Compound 394, (3-Ethoxy-phenyl)-[5-(3-morpholin-4-yl-propoxy)-2,4-dihydro-indeno[1,2-c]pyrazol-3-yl]-amine] | 91% | 0.329 µM | – | – |
| Cc1cccc2c1Cc1c-2n[nH]c1Nc1ccc(F)cc1 [Compound 98, (4-Fluoro-phenyl)-(5-methyl-2,4-dihydro-indeno[1,2-c]pyrazol-3-yl)-amine] | 26% | 30.7 µM | – | – |
| C=C(C)C(=O)OCCNC(=O)n1nc(Nc2cccc(F)c2)c2c1-c1cc(OC)c(OC)cc1C2 [Compound 527, 2-Methyl-acrylic acid 2-{[3-(3-fluoro-phenylamino)-6,7-dimethoxy-4H-indeno[1,2-c]pyrazole-1-carbonyl]-amino}-ethyl ester] | 46.5% | 17.5 µM | – | – |
| Clc1ccc(Nc2[nH]nc3c2Cc2ccccc2-3)cc1 [Compound 3, (4-Chloro-phenyl)-(2,4-dihydro-indeno[1,2-c]pyrazol-3-yl)-amine] | 90% | 0.157 µM | – | – |
| COc1cc2c(cc1OC)-c1c(c(Nc3cccc(F)c3)nn1C(=O)c1ccccc1F)C2 [Compound 481, (2-Fluoro-phenyl)-[3-(3-fluoro-phenylamino)-6,7-dimethoxy-4H-indeno[1,2-c]pyrazol-1-yl]-methanone] | 59% | 3.76 µM | – | – |
| CCOC(=O)CCNC(=O)n1nc2c(c1Nc1ccccc1)Cc1cc(OC)c(OC)cc1-2 [Compound 411, 3-[(6,7-Dimethoxy-3-phenlylamino-4H-indeno[1,2-c]pyrazole-2-carbonyl)-amino]-propionic acid ethyl ester] | 14.5% | 0.0823 µM | – | – |
| Clc1cccc(Nc2[nH]nc3c2Cc2sccc2-3)c1 [Compound 403, (3-Chloro-phenyl)-(5,7-dihydro-1-thia-4,5-diaza-cyclopenta[a]pentalen-6-yl)-amine] | 96% | 0.0859 µM | – | – |
| CCC1c2cc(OC)c(OC)cc2-c2[nH]nc(Nc3cccc(Br)c3)c21 (single isomer, unassigned) [Compound 483, (3-Bromo-phenyl)-(4-ethyl-6,7-dimethoxy-1,4-dihydro-indeno[1,2-c]pyrazol-3-yl)-amine] | – | 4.97 µM | 78.5% | – |
| Fc1ccc(Nc2[nH]nc3c2Cc2sccc2-3)cc1Cl [Compound 404, (3-Chloro-4-fluoro-phenyl)-(5,7-dihydro-1-thia-4,5-diaza-cyclopenta[a]pentalen-6-yl)-amine] | 74.5% | 1.11 µM | – | – |
| COc1cc2c(cc1OC)-c1nn(C(=O)NCCOCCOCCO)c(Nc3cccc(F)c3)c1C2 [Compound 604, 3-(3-Fluoro-phenylamino)-6,7-dimethoxy-4H-indeno[1,2-c]pyrazole-2-carboxylic acid {2-[2-(2-hydroxy-ethoxy)-ethoxy]-ethyl}-amide] | 79.5% | – | – | 2.13 µM |
| CC(C)Oc1cc2c(cc1OC(C)C)C(C)c1c-2n[nH]c1Nc1cccc(F)c1 (centres unmarked) [Compound 351, (6,7-Diisopropoxy-4-methyl-2,4-dihydro-indeno[1,2-c]pyrazol-3-yl)-(3-fluoro-phenyl)-amine] | 93% | 0.4 µM | – | – |

Results, then the molecule that gave them:

| inhibition at 10 µM (PDGF-R kinase activity) | IC50 [1] | Percent Inhibition @ 10 uM (PDGF-R kinase activity) | IC50 [2] | SMILES |
| --- | --- | --- | --- | --- |
| 86% | 2.16 µM | – | – | COc1cc2c(cc1OC)-c1n[nH]c(Nc3ccc(Br)cc3)c1C2 [Compound 45, (4-Bromo-phenyl)-(6,7-dimethoxy-2,4-dihydro-indeno[1,2-c]pyrazol-3-yl)-amine] |
| 57% | 8.6 µM | – | – | COc1ccc(Nc2[nH]nc3c2Cc2c(OC)cccc2-3)c(OC)c1 [Compound 148, (2,4-Dimethoxy-phenyl)-(5-methoxy-2,4-dihydro-indeno[1,2-c]pyrazol-3-yl)-amine] |
| 82% | 3.06 µM | – | – | COc1cc2c(cc1OC)-c1n[nH]c(Nc3cccc(C(=O)O)c3)c1C2 [Compound 115, 3-(6,7-Dimethoxy-2,4-dihydro-indeno[1,2-c]pyrazol-3-ylamino)-benzoic acid] |
| 82.5% | – | – | 1.25 µM | COc1cc2c(cc1OC)-c1n[nH]c(Nc3ncccc3Br)c1C2 [Compound 582, (3-Bromo-pyridin-2-yl)-(6,7-dimethoxy-2,4-dihydro-indeno[1,2-c]pyrazol-3-yl)-amine] |
| 79% | 0.273 µM | – | – | COc1ccc2c(c1)Cc1c-2n[nH]c1Nc1ccc(F)cc1 [Compound 82, (4-Fluoro-phenyl)-(6-methoxy-2,4-dihydro-indeno[1,2-c]pyrazol-3-yl)-amine] |
| 32% | 2.98 µM | – | – | COc1ccc(OC)c(Nc2[nH]nc3c2Cc2c(OC)cccc2-3)c1 [Compound 147, (2,5-Dimethoxy-phenyl)-(5-methoxy-2,4-dihydro-indeno[1,2-c]pyrazol-3-yl)-amine] |
| 100% | 0.0116 µM | – | – | COc1cc2c(cc1OCC(O)CO)Cc1c-2n[nH]c1NCc1ccccc1F (centres unmarked) [Compound 387, 3-[3-(2-Fluoro-benzylamino)-7-methoxy-2,4-dihydro-indeno[1,2-c]pyrazol-6-yloxy]-propane-1,2-diol] |
| 92% | 0.511 µM | – | – | CC(C)Oc1cc2c(cc1OC(C)C)-c1n[nH]c(Nc3ccc(F)c(Cl)c3)c1C2 [Compound 167, (3-Chloro-4-fluoro-phenyl)-(6,7-diisopropoxy-2,4-dihydro-indeno[1,2-c]pyrazol-3-yl)-amine] |
| 51.5% | – | – | 9.38 µM | COc1cc2c(cc1OC)-c1nn(C)c(Nc3cccc(F)c3)c1C2 [Compound 610, (6,7-dimethoxy-2-methyl-1,4-dihydro-indeno[1,2-c]pyrazole-3-yl)-(3-fluoro-phenyl)-amine] |
| 71% | 1.82 µM | – | – | COc1cc2c(cc1OC)-c1n[nH]c(Nc3ccc(C#N)cc3)c1C2 [Compound 59, 4-(6,7-Dimethoxy-2,4-dihydro-indeno[1,2-c]pyrazol-3-ylamino)-benzonitrile] |
| 102% | 0.0121 µM | – | – | COc1cc2c(c(N)c1OC)Cc1c-2n[nH]c1Nc1cccc(F)c1 [Compound 558, N3-(3-Fluoro-phenyl)-6,7-dimethoxy-2,4-dihydro-indeno[1,2-c]pyrazole-3,5-diamine] |
| 84.5% | 0.444 µM | – | – | COc1cc2c(cc1OC)-c1c(c(Nc3cccc(F)c3)nn1C(=O)C(C)C)C2 [Compound 431, 1-[3-(3-Fluoro-phenylamino)-6,7-dimethoxy-4H-indeno[1,2-c]pyrazol-1-yl]-2-methyl-propan-1-one] |
| 57% | 2.53 µM | – | – | COc1ccc2c(c1)Cc1c-2n[nH]c1Nc1ccc(OC)c(OC)c1 [Compound 86, (3,4-Dimethoxy-phenyl)-(6-methoxy-2,4-dihydro-indeno[1,2-c]pyrazol-3-yl)-amine] |
| 70% | 0.806 µM | – | – | COc1cc2c(cc1OC)-c1n[nH]c(NCc3ccc(C)cc3)c1C2 [Compound 222, (6,7-Dimethoxy-2,4-dihydro-indeno[1,2-c]pyrazol-3-yl)-(4-methyl-benzyl)-amine] |
| 99.5% | 0.002 µM | – | – | COc1cc2c(cc1OCC(O)CO)Cc1c-2n[nH]c1NCc1ccccc1Cl (centres unmarked) [Compound 451, 3-[3-(2-Chloro-benzylamino)-7-methoxy-2,4-dihydro-indeno[1,2-c]pyrazol-6-yloxy]-propane-1,2-diol] |
| 78.5% | 0.697 µM | – | – | COc1cc2c(cc1OC)-c1n[nH]c(NCc3ccc(F)cc3F)c1C2 [Compound 328, (2,4-Difluoro-benzyl)-(6,7-dimethoxy-2,4-dihydro-indeno[1,2-c]pyrazol-3-yl)-amine] |
